Read-outs that look alike come from different tables or passages of the source.
Target: T1, mouse TMEM16A mutant V599A (Mus musculus, UniProt Q8BHY3, V599A)
T1 construct: expressed in transfected cells; host or cells: HEK293T
T1 sequence (Q8BHY3 1-960 V599A): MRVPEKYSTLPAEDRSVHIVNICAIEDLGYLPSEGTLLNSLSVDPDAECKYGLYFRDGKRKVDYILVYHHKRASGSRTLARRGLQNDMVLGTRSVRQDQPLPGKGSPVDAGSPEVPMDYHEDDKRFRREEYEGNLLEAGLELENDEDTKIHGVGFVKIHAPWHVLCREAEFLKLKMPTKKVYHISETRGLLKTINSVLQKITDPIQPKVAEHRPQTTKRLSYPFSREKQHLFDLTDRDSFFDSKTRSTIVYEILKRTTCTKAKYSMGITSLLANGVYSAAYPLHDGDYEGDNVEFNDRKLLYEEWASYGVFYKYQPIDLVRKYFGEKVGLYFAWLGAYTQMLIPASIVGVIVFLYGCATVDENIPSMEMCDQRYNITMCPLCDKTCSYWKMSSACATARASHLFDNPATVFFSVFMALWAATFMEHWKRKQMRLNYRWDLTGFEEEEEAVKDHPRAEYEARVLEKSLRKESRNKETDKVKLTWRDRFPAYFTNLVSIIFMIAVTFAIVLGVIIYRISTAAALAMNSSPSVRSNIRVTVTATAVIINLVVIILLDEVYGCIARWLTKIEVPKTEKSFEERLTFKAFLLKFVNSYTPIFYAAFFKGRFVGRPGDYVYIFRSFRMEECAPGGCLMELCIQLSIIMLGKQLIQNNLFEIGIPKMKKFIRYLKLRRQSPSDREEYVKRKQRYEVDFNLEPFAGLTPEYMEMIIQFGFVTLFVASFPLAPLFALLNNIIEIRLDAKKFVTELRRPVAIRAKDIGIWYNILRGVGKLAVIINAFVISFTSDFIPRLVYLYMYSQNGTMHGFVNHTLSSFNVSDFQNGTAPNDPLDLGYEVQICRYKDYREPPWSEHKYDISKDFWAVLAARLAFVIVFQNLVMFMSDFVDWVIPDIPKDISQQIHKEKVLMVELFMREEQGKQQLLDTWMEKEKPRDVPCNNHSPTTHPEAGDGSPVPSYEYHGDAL
Assay: Inside-out patch recording of 1PBC block, mutant V599A
Type: cell-based
Settings: for remaining activity at 3 µM: 1PBC conc 3; for remaining activity at 3 µM / remaining activity at 10 µM / remaining activity at 30 µM / remaining activity at 100 µM: read-out: relative current in 1PBC (avr); for remaining activity at 10 µM: 1PBC conc 10; for remaining activity at 30 µM: 1PBC conc 30; for remaining activity at 100 µM: 1PBC conc 100
Method: HEK293T cells (ATCC CRL-1573) were maintained in Dulbecco’s modified Eagle’s medium (DMEM; Sigma-Aldrich) supplemented with 10 U ml^−1 penicillin, 0.1 mg ml^−1 streptomycin (Sigma-Aldrich), 2 mM L-glutamine (Sigma-Aldrich), and 10% FBS (Sigma-Aldrich) in a humidified atmosphere containing 5% CO2 at 37 °C. HEK293S GnTI^− cells (ATCC CRL-3022) were maintained in HyClone HyCell TransFx-H medium (GE Healthcare) supplemented with 10 U ml^−1 penicillin, 0.1 mg ml^−1 streptomycin, 4 mM L-glutamine, 0.15% poloxamer 188 (Sigma-Aldrich), and 1% FBS in an atmosphere containing 5% CO2 at 185 rpm at 37 °C. The ac splice variant of mouse TMEM16A (UniProt ID: Q8BHY3), mouse TMEM16B (UniProt ID: Q8CFW1), or mouse TMEM16F (UniProt ID: Q6P9J9) bearing a 3C cleavage site, a Venus YFP, a Myc tag, and a Streptavidin-binding peptide (SBP) downstream of the open reading frame in a modified pcDNA3.1 vector (Invitrogen) were used as described previously[21],[31]. Mutations were introduced using a modified QuikChange method[58] and were verified by sequencing.
HEK293T cells were transfected with 3–4 μg DNA per 6 cm Petri dish using the calcium phosphate co-precipitation method and were used within 24–96 h after transfection. Recordings were performed on inside-out patches excised from HEK293T cells expressing the construct of interest. Patch pipettes were pulled from borosilicate glass capillaries (O.D. 1.5 mm, I.D. 0.86 mm, Sutter Instrument) and were fire-polished with a microforge (Narishige) before use. Pipette resistance was typically 3–8 MΩ when filled with the recording solutions detailed below. Seal resistance was typically 4 GΩ or higher. Voltage-clamp recordings were made using Axopatch 200B, Digidata 1550, and Clampex 10.7 (Molecular Devices). Analog signals were filtered with the in-built 4-pole Bessel filter at 10 kHz and were digitized at 20 kHz. Solution exchange was achieved using a gravity-fed system through a theta glass pipette mounted on an ultra-fast piezo-driven stepper (Siskiyou). […] All recordings were performed at 20 °C.
A symmetrical ionic condition was used throughout. Stock solution with Ca^2+-EGTA contained 150 mM NaCl, 5.99 mM Ca(OH)2, 5 mM EGTA, and 10 mM HEPES at pH 7.40. Stock solution with EGTA contained 150 mM NaCl, 5 mM EGTA, and 10 mM HEPES at pH 7.40. Free Ca^2+ concentrations were adjusted by mixing the stock solutions at the required ratios calculated using the WEBMAXC program (http://web.stanford.edu/~cpatton/webmaxcS.htm). Patch pipettes were filled with the stock solution with Ca^2+-EGTA, which has a free Ca^2+ concentration of 1 mM. 1PBC (ChemBridge) stock was reconstituted in anhydrous DMSO (Sigma-Aldrich) at 100 mM and stored at −20 °C. Working solutions with 1PBC were prepared by serial dilution. Unless otherwise stated, experiments were performed at a saturating Ca^2+ concentration as shown in Supplementary Table 1 and the primary data were corrected for current rundown as described previously[21],[25].
Concentration-response relations, obtained from the ratio of the I-V plots before and after the application of the blocker, were fitted to the Hill equation,1 I/Imax=1/1+IC50/[blocker]^h where I/Imax is the normalized current responses, IC50 defines the concentration at which inhibition is at its half-maximum, and h is the Hill coefficient.

IC50 (-20 mV, 15 µM Ca2+): 79.2 µM | remaining activity at 3 µM (-20 mV): 93.7% | remaining activity at 10 µM (-20 mV): 88.9% | remaining activity at 30 µM (-20 mV): 74.6% | remaining activity at 100 µM (-20 mV): 42.8% | IC50 (-40 mV, 15 µM Ca2+): 87.5 µM | remaining activity at 3 µM (-40 mV): 93.7% | remaining activity at 10 µM (-40 mV): 89.2% | remaining activity at 30 µM (-40 mV): 76.8% | remaining activity at 100 µM (-40 mV): 45.5% | IC50 (-60 mV, 15 µM Ca2+): 97.2 µM | remaining activity at 3 µM (-60 mV): 94.2% | remaining activity at 10 µM (-60 mV): 90.8% | remaining activity at 30 µM (-60 mV): 77.7% | remaining activity at 100 µM (-60 mV): 48.6% | IC50 (-80 mV, 15 µM Ca2+): 104 µM | remaining activity at 3 µM (-80 mV): 94.9% | remaining activity at 10 µM (-80 mV): 91.7% | remaining activity at 30 µM (-80 mV): 78.1% | remaining activity at 100 µM (-80 mV): 50.8% | IC50 (-100 mV, 15 µM Ca2+): 109 µM | remaining activity at 3 µM (-100 mV): 94.9% | remaining activity at 10 µM (-100 mV): 91.7% | remaining activity at 30 µM (-100 mV): 78.5% | remaining activity at 100 µM (-100 mV): 52.3% | IC50 (-120 mV, 15 µM Ca2+): 115 µM | remaining activity at 3 µM (-120 mV): 95.9% | remaining activity at 10 µM (-120 mV): 93.5% | remaining activity at 30 µM (-120 mV): 79.4% | remaining activity at 100 µM (-120 mV): 53.3% | IC50 (-140 mV, 15 µM Ca2+): 119 µM | remaining activity at 3 µM (-140 mV): 96% | remaining activity at 10 µM (-140 mV): 93.2% | remaining activity at 30 µM (-140 mV): 79.3% | remaining activity at 100 µM (-140 mV): 54.7% | IC50 (V599A, V 0 mV): 69.5 µM | IC50 (V599A, V 20 mV): 61.3 µM | IC50 (V599A, V 40 mV): 55.5 µM | IC50 (V599A, V 60 mV): 48.9 µM | IC50 (V599A, V 80 mV): 45.8 µM | IC50 (V599A, V 100 mV): 45 µM | IC50 (V599A, V 120 mV): 45.1 µM | IC50 (V599A, V 140 mV): 48.5 µM | IC50 (V599A, V -20 mV): 79.2 µM | IC50 (V599A, V -40 mV): 87.5 µM | IC50 (V599A, V -60 mV): 97.2 µM | IC50 (V599A, V -80 mV): 104 µM | IC50 (V599A, V -100 mV): 109 µM | IC50 (V599A, V -120 mV): 115 µM | IC50 (V599A, V -140 mV): 119 µM
SMILES: N#Cc1c(C(F)(F)F)cc(O)n2c1nc1ccccc12 [1PBC]
